Values joined by “and” are separate entries in the source; they are usually repeats but may differ in a detail not shown here. Equal values may be shown once. Inconclusive results and toxic doses are left out. How the source made its calls: active means survival T/C of 150% or more; inactive means T/C below 125% in these data. Numbered stars: 1 amine (or outer) side, 2 acyl side, 3 side chain; on linkers, the order of the positions; unused ones are H or OH. Bridge positions count the residues as written; N and C are the ends. Square brackets hold non-standard residues; d marks the D form. Peptide text beside a SMILES is read from it. I, II: the chains in the order shown. Actinocin(1to9) = Cc1c2oc3c(C)ccc(C(=O)[*:2])c3nc-2c(C(=O)[*:1])c(N)c1=O; NMeV = CN[CH](C(=O)O)C(C)C; Aze = O=C(O)[CH]1CCN1; Sar = CNCC(=O)O
System: BDF1 mice, Lewis lung carcinoma iv, survival T/C
Experiment: NCI In Vivo Anticancer Drug Screen. Data for tumor model Lewis Lung Carcinoma (intravenous) in B6D2F1 (BDF1) mice
Settings: endpoint: median survival time, higher = longer survival
Description: The antitumor activity of compounds was measured in mice bearing transplantable tumors. Survival or tumor size were measured and the results are expressed as the measurement made in the treated group (T) divided by the measurement made in the vehicle treated control group (C). The tumor model used in this assay is Lewis Lung Carcinoma (intravenous) in B6D2F1 (BDF1) mice

[1] = dose: 12.5 mg/kg/injection, schedule: Q01DX009 (ip), vehicle: saline with Tween-80
[2] = dose: 25.0 mg/kg/injection, schedule: Q01DX009 (ip), vehicle: saline with Tween-80
[3] = dose: 50.0 mg/kg/injection, schedule: Q01DX009 (ip), vehicle: saline with Tween-80
[4] = dose: 100.0 mg/kg/injection, schedule: Q01DX009 (ip), vehicle: saline with Tween-80
[5] = dose: 200.0 mg/kg/injection, schedule: Q01DX009 (ip), vehicle: saline with Tween-80
[6] = dose: 50.0 mg/kg/injection, schedule: Q01DX009 (ip), vehicle: saline

Measured: T/C

COc1ccc(OC)c(/C=C/c2ccnc3ccccc23)c1
inactive: [1] 94 % of control and 100 % of control | [2] 104 % of control and 117 % of control | [3] 94 % of control and 112 % of control | [4] 102 % of control and 109 % of control | [5] 101 % of control and 109 % of control | dose: 400.0 mg/kg/injection, schedule: Q01DX009 (ip), vehicle: saline with Tween-80 104 % of control and 119 % of control

C[N+](C)(C)c1ncnc2nc[nH]c12
inactive: [6] 103 % of control | dose: 100.0 mg/kg/injection, schedule: Q01DX009 (ip), vehicle: saline 100 % of control | dose: 200.0 mg/kg/injection, schedule: Q01DX009 (ip), vehicle: saline 103 % of control

CCCC(=O)Oc1ccc(/C=N/NC(N)=S)nc1
inactive: [1] 104 % of control and 109 % of control | [2] 109 % of control | [3] 96 % of control and 109 % of control | [4] 97 % of control and 104 % of control | [5] 120 % of control

O=C1C(=O)c2ccccc2C(O)=C1CC=C(Cl)Cl
inactive: dose: 12.5 mg/kg/injection, schedule: Q01DX009 (ip), vehicle: Klucel (hydroxypropylcellulose) (HPC) 104 % of control | dose: 25.0 mg/kg/injection, schedule: Q01DX009 (ip), vehicle: Klucel (hydroxypropylcellulose) (HPC) 93 % of control | dose: 50.0 mg/kg/injection, schedule: Q01DX009 (ip), vehicle: Klucel (hydroxypropylcellulose) (HPC) 91 % of control

Cc1c2oc3c(C)ccc(C(=O)NC4C(=O)NC(C(C)C)C(=O)N5CCCC5C(=O)N(C)CC(=O)N(C)C(C(C)C)C(=O)OC4C)c3nc-2c(C(=O)NC2C(=O)NC(C(C)C)C(=O)N3CCC3C(=O)N(C)CC(=O)N(C)C(C(C)C)C(=O)OC2C)c(N)c1=O (configuration not stated) (I: TV[Aze][Sar][NMeV] / II: TVP[Sar][NMeV]; ester I:1-I:C, II:1-II:C; linker I:N-II:N via Actinocin(1to9); configuration not given here)
inactive: dose: 37.5 micrograms/kg/injection, schedule: Q01DX009 (ip), vehicle: saline + alcohol 105 % of control | dose: 75.0 micrograms/kg/injection, schedule: Q01DX009 (ip), vehicle: saline + alcohol 113 % of control | dose: 194.0 micrograms/kg/injection, schedule: Q04DX003 (ip), vehicle: saline + alcohol 92 % of control | dose: 270.0 micrograms/kg/injection, schedule: Q04DX003 (ip), vehicle: saline + alcohol 95 % of control | dose: 324.0 micrograms/kg/injection, schedule: Q04DX003 (ip), vehicle: saline + alcohol 105 % of control | dose: 450.0 micrograms/kg/injection, schedule: Q04DX003 (ip), vehicle: saline + alcohol 104 % of control | dose: 540.0 micrograms/kg/injection, schedule: Q04DX003 (ip), vehicle: saline + alcohol 105 % of control | dose: 648.0 micrograms/kg/injection, schedule: Q01DX001 (ip), vehicle: saline + alcohol 94 % of control | dose: 1080.0 micrograms/kg/injection, schedule: Q01DX001 (ip), vehicle: saline + alcohol 94 % of control

O=C(O)CC(NC(=O)CP(=O)(O)O)C(=O)O.[NH-]C1CCCCC1[NH-].[Pt+2] (configuration not stated)
inactive: dose: 0.4 mg/kg/injection, schedule: Q01DX009 (ip), vehicle: dextrose 90 % of control | dose: 0.8 mg/kg/injection, schedule: Q01DX009 (ip), vehicle: dextrose 110 % of control | dose: 1.6 mg/kg/injection, schedule: Q01DX009 (ip), vehicle: dextrose 99 % of control | dose: 3.0 mg/kg/injection, schedule: Q01DX009 (ip), vehicle: dextrose 108 % of control | dose: 3.2 mg/kg/injection, schedule: Q01DX009 (ip), vehicle: dextrose 103 % of control | dose: 6.25 mg/kg/injection, schedule: Q01DX009 (ip), vehicle: dextrose 110 % of control

CCC(C(=O)O)C(=O)O.[NH-]CC1CCCC[N-]1.[Pt+2]
inactive: dose: 25.0 mg/kg/injection, schedule: Q01DX009 (ip), vehicle: saline 98 % of control and 100 % of control | [6] 100 % of control

COc1ccc(-c2c(C)c(C(=O)O)nc(-c3ccc4c(O)c(OC)c5c(c4n3)=NC(C)(C)N=5)c2N)c(O)c1OC
inactive: dose: 10.0 mg/kg/injection, schedule: Q01DX009 (ip), vehicle: saline with Tween-80 113 % of control | dose: 20.0 mg/kg/injection, schedule: Q01DX009 (ip), vehicle: saline with Tween-80 103 % of control | dose: 40.0 mg/kg/injection, schedule: Q01DX009 (ip), vehicle: saline with Tween-80 98 % of control

— PubChem BioAssay AID274 (DTP/NCI, 2004)
